Data reported in article PMC8517038 (Molecular psychiatry, 2021).
Like-named read-outs stand apart in the source and are kept apart here.

Tests used:
[1] = system: conditioned place preference; assay: Conditioned place preference in mice; assay type: in vivo; settings: male mice, 10 mg/kg IP, 6 days pairing
KOR [2] = biological target: T1, KOR (Homo sapiens, UniProt P41145); assay: Binding and enzyme target profile screen
MOR [3] = biological target: T2, MOR (Homo sapiens, UniProt P35372); assay: β-arrestin recruitment BRET in transfected HEK-293 cells; assay type: cell-based
drug self-administration = assay: Intravenous self-administration in rats; assay type: in vivo; settings: for dose response curve of self-administration: 0.125, 0.25, 0.5, 1.0 mg/kg/infusion, FR1; for extinction of drug self-administration: after retraining on FR1; for self-administration during training: male and female rats, 0.5 mg/kg/infusion, FR1 20-s timeout, 16 sessions
MOR [4] = biological target: T2, MOR; assay: cAMP accumulation BRET; assay type: cell-based
KOR [5] = biological target: T1, KOR; assay: β-arrestin recruitment BRET in transfected HEK-293 cells; assay type: cell-based
KOR [6] = biological target: T1, KOR; assay: cAMP accumulation BRET; assay type: cell-based
Sigma-1 = Sigma-1 (Rattus norvegicus, UniProt Q9R0C9); assay: Competitive radioligand binding, [3H]
locomotor sensitization = assay: Locomotor; assay type: in vivo; settings: male mice; for locomotor (psychomotor) sensitization over days: 20 mg/kg IP for 3 days
mu-opioid receptor (MOR) = mu-opioid receptor (MOR) (Homo sapiens, UniProt P35372); assay: Binding and enzyme target profile screen; settings: 10 μM
[7] = system: conditioned place preference; settings: 40 mg/kg IP, cited from earlier work
locomotor activity = assay: Locomotor activity in mice; assay type: in vivo; settings: for acute locomotor activity: male mice, 5, 10 and 20 mg/kg IP every 30 min
[8] = system: morphine CPP and opioid withdrawal; settings: mice; cited from earlier work
[9] = biological target: PCP binding site of the NMDAR (Rattus norvegicus, UniProt P35439); assay: Binding and enzyme target profile screen; settings: 10 μM
dopamine tone [10] = assay: [18F]-Fallypride PET; assay type: in vivo, rat; settings: 10 mg/kg IV infusion for 40 min
[11] = system: methamphetamine-induced locomotion; settings: 10 mg/kg/day, twice weekly for 8 weeks; cited from earlier work
dopamine tone [12] = settings: awake monkeys; cited from earlier work
[13] = system: NMDARs over opioid receptors; settings: canonical high affinity NMDAR antagonist; no reference given; cited from earlier work

T2 sequence (P35372 whole entry, the tested form may be a part): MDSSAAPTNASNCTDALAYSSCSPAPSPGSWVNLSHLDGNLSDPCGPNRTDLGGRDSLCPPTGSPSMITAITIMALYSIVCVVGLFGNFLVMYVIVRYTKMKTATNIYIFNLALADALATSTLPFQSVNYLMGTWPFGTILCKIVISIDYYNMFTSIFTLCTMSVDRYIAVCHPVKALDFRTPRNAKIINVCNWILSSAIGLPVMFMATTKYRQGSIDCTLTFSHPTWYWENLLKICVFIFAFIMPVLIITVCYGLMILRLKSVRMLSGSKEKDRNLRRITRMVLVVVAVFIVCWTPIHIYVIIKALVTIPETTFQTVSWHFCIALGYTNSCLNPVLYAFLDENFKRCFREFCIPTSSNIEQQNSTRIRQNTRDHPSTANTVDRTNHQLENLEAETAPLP
T1 sequence (P41145 whole entry): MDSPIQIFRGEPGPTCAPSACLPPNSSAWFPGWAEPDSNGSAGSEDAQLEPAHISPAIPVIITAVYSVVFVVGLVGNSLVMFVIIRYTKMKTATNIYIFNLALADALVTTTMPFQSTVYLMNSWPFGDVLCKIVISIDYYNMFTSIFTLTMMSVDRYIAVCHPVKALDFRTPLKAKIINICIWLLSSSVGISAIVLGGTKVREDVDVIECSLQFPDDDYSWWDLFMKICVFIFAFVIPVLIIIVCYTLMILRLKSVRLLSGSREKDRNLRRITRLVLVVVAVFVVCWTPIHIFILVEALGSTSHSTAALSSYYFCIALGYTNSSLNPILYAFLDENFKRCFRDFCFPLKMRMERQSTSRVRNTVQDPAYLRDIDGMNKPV
mu-opioid receptor (MOR), sequence (P35372 whole entry): as the sequence (P35372 whole entry, the tested form may be a part) above
Sigma-1, sequence (Q9R0C9 whole entry): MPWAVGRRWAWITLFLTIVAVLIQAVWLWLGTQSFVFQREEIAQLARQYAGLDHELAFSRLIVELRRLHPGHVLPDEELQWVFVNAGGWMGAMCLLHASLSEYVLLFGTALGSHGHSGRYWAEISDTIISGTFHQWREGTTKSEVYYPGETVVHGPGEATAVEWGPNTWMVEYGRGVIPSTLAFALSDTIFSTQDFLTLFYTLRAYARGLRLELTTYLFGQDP

SMILES	conditioned place preference for drug-paired chamber [1]	activation of the β-arrestin pathway, MOR (MOR [3])	dose response curve of self-administration (drug self-administration)	extinction of drug self-administration (drug self-administration)	self-administration during training (drug self-administration)	mode of action at MOR, cAMP assay (MOR [4])	activation of the β-arrestin pathway, KOR (KOR [5])	mode of action at KOR, cAMP assay (KOR [6])	locomotor activity after 20 mg/kg IP injection (locomotor sensitization)	locomotor (psychomotor) sensitization over days (locomotor sensitization)	hit (>50% inhibition) at MOR (mu-opioid receptor (MOR))	acute locomotor activity (locomotor activity)	hit (>50% inhibition) at PCP binding site of the NMDAR [9]	global extracellular dopamine levels in the dorsal striatum ([18F]fallypride) (dopamine tone [10])	other results
CN[C@@]1(c2ccccc2Cl)CCCCC1=O [(R)-ketamine]	not for the (R)-ketamine-paired chamber	Neither (S)- nor (R)-ketamine activated	did not show this pattern of responding	rapid extinction of drug seeking	weaker and less reliable	weaker partial agonist	Neither (S)- nor (R)-ketamine activated	weaker partial agonist	increased locomotor activity	but not (R)-ketamine induced psychomotor sensitization	not for (R)-ketamine	increasing it only at the 20 mg/kg dose	positive hit	Neither (S)- nor (R)-ketamine significantly changed	inhibition of KOR binding (KOR [2]; 10 μM): ~ 13%; Emax MOR, cAMP assay (MOR [4]; % morphine maximum response): 39 ± 3%; EC50 (MOR [4]; read-out: EC50 MOR, cAMP assay, HEK-293 transfected with MOR): 34 ± 14 µM; Emax KOR, cAMP assay (KOR [6]; % morphine maximum response): < 50%; EC50 (KOR [6]; read-out: EC50 KOR, cAMP assay, HEK-293 transfected with KOR): > 100 µM; Ki (Sigma-1; read-out: Ki sigma-1, rat whole brain, [3H](+)pentazocine): 27 ± 3 µM; cross-sensitization to (S)-ketamine (locomotor sensitization; repeated 20 mg/kg IP): did not cross-sensitize to (S)-ketamine; CPP in mice ([7]; ref 68): did not produce CPP; CPP in mice ([7]; ref 71): produced CPP in mice; morphine CPP and naloxone-precipitated opioid withdrawal [8]: decreases morphine CPP and naloxone-precipitated opioid withdrawal
CN[C@]1(c2ccccc2Cl)CCCCC1=O [(S)-ketamine]	significant preference for the (S)-ketamine-paired chamber	Neither (S)- nor (R)-ketamine activated	characteristic inverted U-shaped dose response curve	rapid extinction of drug seeking	self-administered (S)-ketamine with a significant escalation of drug intake	partial agonist	Neither (S)- nor (R)-ketamine activated	full agonist	increased locomotor activity	showed locomotor sensitization over days	identified as a hit for (S)-ketamine	more potent than (R)-ketamine in increasing locomotor activity	positive hit	Neither (S)- nor (R)-ketamine significantly changed	inhibition at 10 µM (KOR [2]; read-out: inhibition of KOR binding): ~35%; methamphetamine-induced locomotion in mice [11]: led to increased methamphetamine-induced locomotion; average self-administered intake (drug self-administration; dose response test): ~ 15 mg/kg/h; EC50 (MOR [4]): 9 ± 2 µM; Emax (MOR [4]; HEK293, read-out: Emax MOR, cAMP assay): 48 ± 3%; [11C]raclopride binding (dopamine tone) (dopamine tone [12]): decreases in [^11C]raclopride binding; EC50 (KOR [6]): 16 ± 4 µM; Emax (KOR [6]; HEK293, read-out: Emax KOR, cAMP assay): 84 ± 5%; Ki (Sigma-1): 131 ± 15 µM
C[C@]12N[C@H](Cc3ccccc31)c1ccccc12 [MK-801]															selectivity for NMDAR over opioid receptors [13]: ~ 1000 fold
O=C1CC[C@@]2(O)[C@H]3Cc4ccc(O)c5c4[C@@]2(CCN3CC2CC2)[C@H]1O5 [naltrexone]															effect on (S)-ketamine-induced locomotor activity (locomotor activity; naltrexone 10 mg/kg IP pretreatment, male mice): partially blocked
